The values that follow come from ChEMBL document CHEMBL1159117, “Anti-invasive and anti-angiogenic activities of naturally occurring dibenzodiazepine BU-4664L and its derivatives” (Bioorg Med Chem Lett, 2010).

Values after ≈ are worked out from the molar mass of the structure shown.

For data set [1], the system named is Renca. The experiment in a line: Antiinvasive activity against mouse Renca at >1 ug/ml by Matrigel assay. The data set is classed as functional.
Data set [2] in a line: Antiinvasive activity against mouse Colon 26-L5 assessed as inhibition of cell migration after 6 hrs by Matrigel assay. The data set is classed as functional.
Data set [3] has as its system Renca. Nature of the data set: Antiinvasive activity against mouse Renca by Matrigel assay. The data set is classed as functional, cell-based.
Data set [4] can be described thus: Cytotoxicity against mouse Colon 26-L5 cells. It is filed as functional, cell-based.
The test system of data set [5] is Renca. Nature of the data set: Cytotoxicity against mouse Renca cells. The data set is classed as functional, cell-based.
The nature of data set [6]: Cytotoxicity against HUVEC cells at >10 ug/ml. The data set is classed as cell-based. To be noted: human, read-out: INH.
Data set [7] relates to HUVEC. Nature of the data set: Cytotoxicity against HUVEC cells. The data set is classed as cell-based. To be noted: Homo sapiens.
For data set [8], the system named is HUVEC. Nature of the data set: Antiangiogenic activity against HUVEC cells assessed as inhibition of vascular formation after 6 hrs by […]. The following applies: Homo sapiens. The data set is classed as functional, cell-based.
Data set [9] is described as follows: Antiinvasive activity against mouse Colon 26-L5 assessed as inhibition of cell migration at >1 ug/ml after 6 hrs by Matrigel assay. The data set is classed as functional.
Data set [10] has as its system Renca. Nature of the data set: Cytotoxicity against mouse Renca cells at >10 ug/ml. The data set is classed as functional.
Data set [11] can be described thus: Antiinvasive activity against mouse Colon 26-L5 by Matrigel assay. The data set is classed as functional.
Data set [12] can be described thus: Antiinvasive activity against mouse Colon 26-L5 at >1 ug/ml by Matrigel assay. The data set is classed as functional.
In data set [13] the test system is HUVEC. Nature of the data set: Antiinvasive activity against HUVEC assessed as inhibition of cell migration after 6 hrs by Matrigel assay. The data set is classed as functional, cell-based. To be noted: Homo sapiens.
The subject of data set [14] is HUVEC. Nature of the data set: Antiangiogenic activity against HUVEC cells assessed as inhibition of vascular formation at >1 ug/ml after 6 hrs by […]. The data set is classed as functional, Homo sapiens.
The target of data set [15] is 72 kDa type IV collagenase (Homo sapiens, UniProt P08253). Nature of the data set: Inhibition of MMP2.
Data set [16] has as its target Matrix metalloproteinase-9 (Homo sapiens, UniProt P14780). Nature of the data set: Inhibition of MMP9.
Data set [17] is described as follows: Cytotoxicity against mouse Colon 26-L5 cells at >1 ug/ml. It is filed as functional.

72 kDa type IV collagenase, sequence (P08253 whole entry): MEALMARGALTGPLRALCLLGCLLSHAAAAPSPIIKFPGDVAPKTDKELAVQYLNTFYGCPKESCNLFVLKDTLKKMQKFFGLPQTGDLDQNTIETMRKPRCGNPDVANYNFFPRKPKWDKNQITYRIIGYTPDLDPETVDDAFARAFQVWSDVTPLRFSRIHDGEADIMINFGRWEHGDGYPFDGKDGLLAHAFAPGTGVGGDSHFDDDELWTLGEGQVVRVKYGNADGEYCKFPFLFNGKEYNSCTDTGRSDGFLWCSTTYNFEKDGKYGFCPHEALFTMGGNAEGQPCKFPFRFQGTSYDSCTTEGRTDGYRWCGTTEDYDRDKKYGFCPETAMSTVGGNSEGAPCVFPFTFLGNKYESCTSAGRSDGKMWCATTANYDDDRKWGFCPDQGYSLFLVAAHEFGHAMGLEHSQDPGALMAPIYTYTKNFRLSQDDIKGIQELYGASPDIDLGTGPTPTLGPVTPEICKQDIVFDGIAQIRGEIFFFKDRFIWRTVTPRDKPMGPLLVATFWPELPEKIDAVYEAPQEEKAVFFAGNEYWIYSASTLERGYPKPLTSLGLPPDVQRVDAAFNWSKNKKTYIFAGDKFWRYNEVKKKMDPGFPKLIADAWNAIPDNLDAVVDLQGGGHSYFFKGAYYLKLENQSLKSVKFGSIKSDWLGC
Matrix metalloproteinase-9, sequence (P14780 whole entry): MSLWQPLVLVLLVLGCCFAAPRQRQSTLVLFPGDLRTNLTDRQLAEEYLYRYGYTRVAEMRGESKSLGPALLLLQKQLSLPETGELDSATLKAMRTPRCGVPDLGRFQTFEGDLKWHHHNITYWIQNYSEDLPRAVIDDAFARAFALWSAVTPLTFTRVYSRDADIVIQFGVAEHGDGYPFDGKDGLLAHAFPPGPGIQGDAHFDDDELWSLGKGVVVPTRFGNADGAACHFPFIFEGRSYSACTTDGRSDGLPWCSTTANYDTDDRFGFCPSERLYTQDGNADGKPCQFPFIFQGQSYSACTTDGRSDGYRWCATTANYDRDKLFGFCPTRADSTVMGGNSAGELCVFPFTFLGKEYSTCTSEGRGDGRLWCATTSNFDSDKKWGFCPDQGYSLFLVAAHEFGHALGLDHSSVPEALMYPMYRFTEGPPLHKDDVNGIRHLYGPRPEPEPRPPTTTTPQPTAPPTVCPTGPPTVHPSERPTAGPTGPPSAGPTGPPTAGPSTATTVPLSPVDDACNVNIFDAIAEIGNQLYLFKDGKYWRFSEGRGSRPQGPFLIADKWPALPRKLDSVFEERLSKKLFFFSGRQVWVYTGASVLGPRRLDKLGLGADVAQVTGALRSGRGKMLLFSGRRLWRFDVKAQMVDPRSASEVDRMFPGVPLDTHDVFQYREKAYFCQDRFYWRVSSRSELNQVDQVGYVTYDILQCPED

As usually defined, the IC50 is the concentration at which inhibition is half-maximal. Take `CC(C)CCCC(C)CCCC(C)CCN1C(=O)c2cccc(O)c2Nc2c(O)cc(O)cc21` (stereo not drawn): the “inhibition (INH)” value in the data set on Renca [1] is listed as 40%; in data set [9], 22%; in the data set with Renca [10] it was 0%; in data set [12], 30%. Further, the 50% inhibitory concentration (IC50) is more than 1 µg/mL in [2]; more than 1 µg/mL with Renca [3]; 10 µg/mL (≈ 21.3 µM) in data set [4]; more than 10 µg/mL with Renca [5]; more than 10 µg/mL in the data set on HUVEC [7]; 0.23 µg/mL (≈ 0.491 µM) in the data set on HUVEC [8]. Further, the results for the half-maximal inhibitory concentration (IC50) (in data set [11]; in the data set with HUVEC [13]) were more than 1 µg/mL and 0.0024 µg/mL (≈ 0.00512 µM), respectively. In [6], the cytotoxicity came out at 0%.

For the molecule `CC(=O)Oc1cc(OC(C)=O)c2c(c1)N(C/C=C(\C)CC/C=C(\C)CCC=C(C)C)C(=O)c1cccc(OC(C)=O)c1N2`, the “inhibition (INH)” value in the data set on Renca [1] came to 40%; in the data set with HUVEC [14] it was 0%; with Renca [10], 0%; in data set [12], 0%. Moreover, the half-inhibitory concentration (IC50) in the data set on Renca [3] is more than 1 µg/mL; in data set [4], 7.6 µg/mL (≈ 12.9 µM); in the data set with Renca [5], more than 10 µg/mL; with HUVEC [7], more than 10 µg/mL; in the data set with HUVEC [8], more than 1 µg/mL; in [11] it was more than 1 µg/mL. Moreover, the cytotoxicity in data set [6] turned out to be 0%.

Turning to `CO[C@@H]1[C@H](OC(=O)/C=C/C=C/C=C/C=C/C(=O)O)CC[C@]2(CO2)[C@H]1[C@@]1(C)O[C@@H]1CC=C(C)C` [FUMAGILLIN], the IC50 in the data set with HUVEC [8] came out at 0.034 µg/mL (≈ 0.0741 µM); with HUVEC [13], 0.023 µg/mL (≈ 0.0502 µM).

For the molecule `CC(C)=CCC/C(C)=C/CC/C(C)=C/CN1C(=O)c2cccc(O)c2Nc2c(O)cc(O)cc21` [DIAZEPINOMICIN], the IC50 is 994 nM in data set [15]; 0.63 µg/mL (≈ 1.36 µM) in [2]; 0.78 µg/mL (≈ 1.69 µM) in the data set on Renca [3]; 7.8 µg/mL (≈ 16.9 µM) in [4]; 8.3 µg/mL (≈ 17.9 µM) with Renca [5]; 2 µg/mL (≈ 4.32 µM) in the data set on HUVEC [7]. In addition, the 50% inhibitory concentration (IC50) in the data set on HUVEC [8] is 0.72 µg/mL (≈ 1.56 µM); in data set [16] it was 1300 nM; in data set [11] it was 1 µg/mL (≈ 2.16 µM); with HUVEC [13] it was 0.43 µg/mL (≈ 0.93 µM).

`COc1cc(OC)c2c(c1)N(C/C=C(\C)CC/C=C(\C)CCC=C(C)C)C(=O)c1cccc(OC)c1N2`: the 50% inhibitory concentration (IC50) is 0.67 µg/mL (≈ 1.33 µM) in [2]; 0.78 µg/mL (≈ 1.55 µM) with Renca [3]; more than 10 µg/mL in data set [4]; more than 10 µg/mL in the data set on Renca [5]; more than 10 µg/mL in the data set with HUVEC [7]; 0.11 µg/mL (≈ 0.218 µM) in the data set with HUVEC [8]. For the same molecule, the half-maximal inhibitory concentration (IC50) stood at 1 µg/mL (≈ 1.98 µM) in data set [11] and 0.0076 µg/mL (≈ 0.0151 µM) in the data set with HUVEC [13]. Moreover, the “inhibition (INH)” value is listed as 30% in [17] and 40% in the data set on Renca [10]. For the same molecule, in data set [6], the cytotoxicity was 0%.

Regarding `COc1cc(OC)c2c(c1)N(CCC(C)CCCC(C)CCCC(C)C)C(=O)c1cccc(OC)c1N2` (stereo not drawn), the “inhibition (INH)” value turned out to be 44% with Renca [1], 8% in data set [17], 30% in the data set with HUVEC [14] and 31% in the data set with Renca [10]. In addition, the IC50 in the data set with Renca [3] was 1 µg/mL (≈ 1.96 µM); in data set [4], more than 10 µg/mL; in the data set on Renca [5] it was more than 10 µg/mL; with HUVEC [7], more than 10 µg/mL; with HUVEC [8] it was more than 1 µg/mL; in [11] it was 1 µg/mL (≈ 1.96 µM). Moreover, the cytotoxicity in data set [6] was 32%.
